From ChEMBL document CHEMBL1201861, “Genomics of Drug Sensitity in Cancer screening data, Wellcome Trust Sanger Institute”
Values joined by “and” are separate entries in the source; they are usually repeats but may differ in a detail not shown here. Equal entries are not always repeated. Where a SMILES comes first, the peptide text is derived from it. The star is where a group is joined. Cbz = O=C(OCc1ccccc1)*

Assays:
Experiment in all cases: cells
Calu-6 = assay type: functional, cell-based, Homo sapiens;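 also: growth of human Calu-6 cells, read out by a cell viability assay, IC50 marking inhibition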
Description: SANGER: Inhibition of human Calu-6 cell growth in a cell viability assay.

SK-UT-1 = assay type: functional, cell-based, Homo sapiens;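 also: growth inhibition of SK-UT-1 cells, measured by a cell viability assay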
Description: SANGER: Inhibition of human SK-UT-1 cell growth in a cell viability assay.

RPMI-8226 = assay type: functional, cell-based, Homo sapiens
Description: SANGER: Inhibition of human RPMI-8226 cell growth in a cell viability assay.

NCI-H1581 = assay type: functional, cell-based, Homo sapiens;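 also: cell growth inhibition read out by a viability assay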
Description: SANGER: Inhibition of human NCI-H1581 cell growth in a cell viability assay.

A3-KAW = assay type: functional, cell-based, Homo sapiens;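 also: growth inhibition of human A3-KAW cells, read out with a cell viability assay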
NB13 = assay type: functional, cell-based, Homo sapiens;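 also: cell viability readout measuring growth inhibition of human NB13 cells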
Description: SANGER: Inhibition of human NB13 cell growth in a cell viability assay.

A253 cell line = assay type: functional, cell-based, Homo sapiens;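 also: growth inhibition of A253 cells, read out with a cell viability assay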
Description: SANGER: Inhibition of human A253 cell growth in a cell viability assay.

NCI-H1838 = assay type: functional, cell-based, Homo sapiens;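 also: growth inhibition of NCI-H1838 cells, determined with a cell viability readout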
Description: SANGER: Inhibition of human NCI-H1838 cell growth in a cell viability assay.

CW-2 = assay type: functional, cell-based, Homo sapiens;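 also: growth inhibition of CW-2 cells, read out by a cell viability assay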
Description: SANGER: Inhibition of human CW-2 cell growth in a cell viability assay.

NMC-G1 = assay type: functional, cell-based, Homo sapiens;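 also: growth inhibition of the NMC-G1 cell line, measured with a cell viability read-out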
Description: SANGER: Inhibition of human NMC-G1 cell growth in a cell viability assay.

GCIY = assay type: functional, cell-based, Homo sapiens;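 also: growth inhibition of the human GCIY cell line, read out by a cell viability assay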
Description: SANGER: Inhibition of human GCIY cell growth in a cell viability assay.

NKM-1 = assay type: functional, cell-based, Homo sapiens;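 also: growth inhibition of NKM-1 cells, read out with a cell viability assay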
Description: SANGER: Inhibition of human NKM-1 cell growth in a cell viability assay.

NCI-H2126 = assay type: functional, cell-based, Homo sapiens;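 also: growth inhibition of the cancer cell line, determined with a cell viability readout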
NCI-H747 = assay type: functional, cell-based, Homo sapiens;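 also: growth inhibition of human NCI-H747 cells, read out by a cell viability assay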
Description: SANGER: Inhibition of human NCI-H747 cell growth in a cell viability assay.

SK-LMS-1 = assay type: functional, cell-based, Homo sapiens;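 also: growth inhibition of human SK-LMS-1 cells, read out with a cell viability assay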
GT3TKB = assay type: functional, cell-based, Homo sapiens;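 also: growth inhibition of the cell line, read out with a cell viability assay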
Description: SANGER: Inhibition of human GT3TKB cell growth in a cell viability assay.

KS-1 = assay type: functional, cell-based; conditions: Homo sapiens;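 also: growth inhibition of KS-1 cells, read out with a cell viability assay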
Description: SANGER: Inhibition of human KS-1 cell growth in a cell viability assay.

HOP-62 = assay type: functional, cell-based, Homo sapiens;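 also: cell growth inhibition determined with a viability assay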
LB2518-MEL = assay type: functional, cell-based; conditions: Homo sapiens;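 also: growth inhibition of human LB2518-MEL cells, measured with a cell viability assay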
ALL-PO = assay type: functional, cell-based, Homo sapiens;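 also: growth inhibition of ALL-PO cells, read out by a cell viability assay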
Description: SANGER: Inhibition of human ALL-PO cell growth in a cell viability assay.

KINGS-1 = assay type: functional, cell-based, Homo sapiens;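 also: cell viability assay measuring suppression of KINGS-1 cell growth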
Description: SANGER: Inhibition of human KINGS-1 cell growth in a cell viability assay.

MN-60 = assay type: functional, cell-based, Homo sapiens;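 also: growth inhibition of the MN-60 cell line, determined with a cell viability assay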
Description: SANGER: Inhibition of human MN-60 cell growth in a cell viability assay.

SW982 = assay type: functional, cell-based; conditions: Homo sapiens;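 also: growth inhibition of SW982 cells, read out with a cell viability assay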
Description: SANGER: Inhibition of human SW982 cell growth in a cell viability assay.

TE-6 = assay type: functional, cell-based, Homo sapiens;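 also: growth inhibition of TE-6 cells, read out with a cell viability assay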
Description: SANGER: Inhibition of human TE-6 cell growth in a cell viability assay.

D-502MG = assay type: functional, cell-based, Homo sapiens
Description: SANGER: Inhibition of human D-502MG cell growth in a cell viability assay.

GOTO = assay type: functional, cell-based, Homo sapiens;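 also: growth inhibition of GOTO cells, read out by a cell viability assay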
Description: SANGER: Inhibition of human GOTO cell growth in a cell viability assay.

HCE-4 = assay type: functional, cell-based; conditions: Homo sapiens;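 also: cell viability assay measuring inhibition of growth in the human HCE-4 cell line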
Description: SANGER: Inhibition of human HCE-4 cell growth in a cell viability assay.

OMC-1 = assay type: functional, cell-based, Homo sapiens;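 also: growth inhibition of the OMC-1 cell line, measured by a cell viability assay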
Description: SANGER: Inhibition of human OMC-1 cell growth in a cell viability assay.

NCI-H446 = assay type: functional, cell-based, Homo sapiens;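 also: growth inhibition of NCI-H446 cells determined by a cell viability assay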
Description: SANGER: Inhibition of human NCI-H446 cell growth in a cell viability assay.

TGW = assay type: functional, cell-based, Homo sapiens;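 also: growth inhibition of human TGW cells, read out with a cell viability assay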
Description: SANGER: Inhibition of human TGW cell growth in a cell viability assay.

EW-1 = assay type: functional, cell-based, Homo sapiens;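 also: growth inhibition of the human EW-1 cell line, read out by a cell viability assay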
Description: SANGER: Inhibition of human EW-1 cell growth in a cell viability assay.

HT-144 = assay type: functional, cell-based, Homo sapiens
Description: SANGER: Inhibition of human HT-144 cell growth in a cell viability assay.

KARPAS-299 = assay type: functional, cell-based, Homo sapiens
Description: SANGER: Inhibition of human KARPAS-299 cell growth in a cell viability assay.

COLO-320-HSR = assay type: functional, cell-based, Homo sapiens;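 also: growth inhibition of COLO-320-HSR cells, determined with a cell viability assay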
Description: SANGER: Inhibition of human COLO-320-HSR cell growth in a cell viability assay.

LB996-RCC = assay type: functional, cell-based, Homo sapiens
Description: SANGER: Inhibition of human LB996-RCC cell growth in a cell viability assay.

EKVX = assay type: functional, cell-based, Homo sapiens;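 also: growth inhibition of human EKVX cells, read out with a cell viability assay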
Description: SANGER: Inhibition of human EKVX cell growth in a cell viability assay.

HL-60 = assay type: functional, cell-based, Homo sapiens;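 also: growth inhibition of human HL-60 cells, read out with a cell viability assay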
Description: SANGER: Inhibition of human HL-60 cell growth in a cell viability assay.

NCI-H1304 = assay type: functional, cell-based, Homo sapiens;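 also: growth inhibition of the cancer cell line, measured in a cell viability assay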
Description: SANGER: Inhibition of human NCI-H1304 cell growth in a cell viability assay.

TE-1 = assay type: functional, cell-based, Homo sapiens;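 also: growth inhibition of the human TE-1 cell line, read out with a cell viability assay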
NOMO-1 = assay type: functional, cell-based, Homo sapiens;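 also: growth inhibition of human NOMO-1 cells measured by a cell viability assay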
Description: SANGER: Inhibition of human NOMO-1 cell growth in a cell viability assay.

HD-MY-Z = assay type: functional, cell-based, Homo sapiens;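 also: growth inhibition of HD-MY-Z cells, read out with a cell viability assay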
Description: SANGER: Inhibition of human HD-MY-Z cell growth in a cell viability assay.

MLMA = assay type: functional, cell-based, Homo sapiens;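 also: growth inhibition of MLMA cells (human), determined through a cell viability readout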
Description: SANGER: Inhibition of human MLMA cell growth in a cell viability assay.

AM-38 = assay type: functional, cell-based, Homo sapiens;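 also: growth inhibition of AM-38 cells of human origin, read out by a cell viability assay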
Description: SANGER: Inhibition of human AM-38 cell growth in a cell viability assay.

DSH1 = assay type: functional, cell-based; conditions: Homo sapiens;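 also: growth inhibition of human DSH1 cells, measured with a cell viability readout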
Description: SANGER: Inhibition of human DSH1 cell growth in a cell viability assay.

OS-RC-2 = assay type: functional, cell-based, Homo sapiens;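 also: growth inhibition of human OS-RC-2 cells, measured by a cell viability assay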
Description: SANGER: Inhibition of human OS-RC-2 cell growth in a cell viability assay.

KM-H2 = assay type: functional, cell-based, Homo sapiens;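 also: growth inhibition of KM-H2 cells, read out by a cell viability assay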
Description: SANGER: Inhibition of human KM-H2 cell growth in a cell viability assay.

MHH-PREB-1 = assay type: functional, cell-based, Homo sapiens;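 also: cell viability assay measuring inhibition of proliferation of human MHH-PREB-1 cells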
Description: SANGER: Inhibition of human MHH-PREB-1 cell growth in a cell viability assay.

LB2241-RCC = assay type: functional, cell-based, Homo sapiens;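 also: cell viability assay measuring how strongly the cultured human renal carcinoma line is prevented from growing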
LNCaP-Clone-FGC = assay type: functional, cell-based, Homo sapiens
Description: SANGER: Inhibition of human LNCaP-Clone-FGC cell growth in a cell viability assay.

KURAMOCHI = assay type: functional, cell-based, Homo sapiens; conditions: kuramochi;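 also: growth inhibition of KURAMOCHI cells, read out with a cell viability assay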
Description: SANGER: Inhibition of human KURAMOCHI cell growth in a cell viability assay.

Q: Which results are given for `Cc1ccc(NC(=O)c2ccc(CN3CCN(C)CC3)cc2)cc1Nc1nccc(-c2cccnc2)n1` [IMATINIB]?
A: IC50 (Calu-6; Homo sapiens, Calu-6): > 2 µM; IC50 (SK-UT-1; Homo sapiens, SK-UT-1): > 2 µM; IC50 (RPMI-8226; Homo sapiens, RPMI-8226): > 2 µM; IC50 (NCI-H1581; Homo sapiens, NCI-H1581): > 2 µM; IC50 (A3-KAW; Homo sapiens, A3-KAW): > 2 µM; IC50 (NB13; Homo sapiens, NB13): > 2 µM; IC50 (A253 cell line; Homo sapiens, A253): > 2 µM; IC50 (NCI-H1838; Homo sapiens, NCI-H1838): > 2 µM; IC50 (CW-2; Homo sapiens, CW-2): > 2 µM; IC50 (NMC-G1; Homo sapiens, NMC-G1): > 2 µM; IC50 (GCIY; Homo sapiens, GCIY): > 2 µM; IC50 (NKM-1; Homo sapiens, NKM-1): > 2 µM; IC50 (NCI-H2126; Homo sapiens, NCI-H2126): > 2 µM; IC50 (NCI-H747; Homo sapiens, NCI-H747): > 2 µM; IC50 (SK-LMS-1; Homo sapiens, SK-LMS-1): > 2 µM; IC50 (GT3TKB; Homo sapiens, GT3TKB): > 2 µM; IC50 (KS-1): > 2 µM; IC50 (HOP-62; Homo sapiens, HOP-62): > 2 µM; IC50 (LB2518-MEL): > 2 µM; IC50 (ALL-PO; Homo sapiens, ALL-PO): > 2 µM; IC50 (KINGS-1; Homo sapiens, KINGS-1): > 2 µM; IC50 (MN-60; Homo sapiens, MN-60): > 2 µM; IC50 (SW982): > 2 µM; IC50 (TE-6; Homo sapiens, TE-6): > 2 µM; IC50 (D-502MG; Homo sapiens, D-502MG): > 2 µM; IC50 (GOTO; Homo sapiens, GOTO): > 2 µM; IC50 (HCE-4): > 2 µM; IC50 (OMC-1; Homo sapiens, OMC-1): > 2 µM; IC50 (NCI-H446; Homo sapiens, NCI-H446): > 2 µM; IC50 (TGW; Homo sapiens, TGW): > 2 µM; IC50 (EW-1; Homo sapiens, EW-1): > 2 µM; IC50 (HT-144; Homo sapiens, HT-144): > 2 µM; IC50 (KARPAS-299; Homo sapiens, KARPAS-299): > 2 µM; IC50 (COLO-320-HSR; Homo sapiens, COLO-320-HSR): > 2 µM; IC50 (LB996-RCC; Homo sapiens, LB996-RCC): > 2 µM; IC50 (EKVX; Homo sapiens, EKVX): > 2 µM; IC50 (HL-60; Homo sapiens, HL-60): > 2 µM; IC50 (NCI-H1304; Homo sapiens, NCI-H1304): > 2 µM; IC50 (TE-1; Homo sapiens, TE-1): > 2 µM; IC50 (NOMO-1; Homo sapiens, NOMO-1): > 2 µM; IC50 (HD-MY-Z; Homo sapiens, HD-MY-Z): > 2 µM; IC50 (MLMA; Homo sapiens, MLMA): > 2 µM; IC50 (AM-38; Homo sapiens, AM-38): > 2 µM; IC50 (DSH1): > 2 µM; IC50 (OS-RC-2; Homo sapiens, OS-RC-2): > 2 µM; IC50 (KM-H2; Homo sapiens, KM-H2): > 2 µM; IC50 (MHH-PREB-1; Homo sapiens, MHH-PREB-1): > 2 µM; IC50 (LB2241-RCC; Homo sapiens, LB2241-RCC): > 2 µM

Q: `CC(C)C[C@@H](C=O)NC(=O)[C@H](CC(C)C)NC(=O)[C@H](CC(C)C)NC(=O)OCc1ccccc1` [MG-132] (Cbz-Leu-Leu-Leu-aldehyde) was tested. Which IC50 (Calu-6; Homo sapiens, Calu-6) did it give?
A: The IC50 was over 1 µM.

Q: And the IC50 (Calu-6; calu-6)?
A: Its IC50 is over 1 µM.

Q: And the IC50 (SK-UT-1; sk-ut-1)?
A: Its IC50 is 0.22 µM and > 1 µM.

Q: What about the IC50 (RPMI-8226; rpmi-8226) of the same compound?
A: The IC50 was > 1 µM and 0.423 µM.

Q: And the IC50 (NCI-H1581; Homo sapiens, NCI-H1581)?
A: The IC50 was over 1 µM.

Q: What about the IC50 (NCI-H1581; nci-h1581) of the same compound?
A: The IC50 was over 1 µM.

Q: What about the IC50 (A3-KAW; a3-kaw) of the same compound?
A: Its IC50 is over 1 µM.

Q: What about the IC50 (NB13; nb13) of the same compound?
A: The IC50 was over 1 µM.

Q: What about the IC50 (A253 cell line; a253) of the same compound?
A: The IC50 was 0.161 µM and > 1 µM.

Q: And the IC50 (NCI-H1838; nci-h1838)?
A: The IC50 was over 1 µM.

Q: What about the IC50 (CW-2; cw-2) of the same compound?
A: Its IC50 is over 1 µM.

Q: And the IC50 (NMC-G1; nmc-g1)?
A: The IC50 was over 1 µM.

Q: What about the IC50 (GCIY; gciy) of the same compound?
A: The IC50 was over 1 µM.

Q: And the IC50 (LNCaP-Clone-FGC; Homo sapiens, LNCaP-Clone-FGC)?
A: Its IC50 is over 1 µM.

Q: What about the IC50 (LNCaP-Clone-FGC; lncap-clone-fgc) of the same compound?
A: The IC50 was over 1 µM.

Q: What about the IC50 (NKM-1; nkm-1) of the same compound?
A: The IC50 was over 1 µM.

Q: And the IC50 (NCI-H2126; nci-h2126)?
A: Its IC50 is 0.627 µM and > 1 µM.

Q: What about the IC50 (NCI-H747; Homo sapiens, NCI-H747) of the same compound?
A: Its IC50 is 0.371 µM.

Q: What about the IC50 (NCI-H747; nci-h747) of the same compound?
A: Its IC50 is 0.713 µM.

Q: And the IC50 (SK-LMS-1; sk-lms-1)?
A: Its IC50 is 0.193 µM and > 1 µM.

Q: And the IC50 (GT3TKB; gt3tkb)?
A: The IC50 was over 1 µM.

Q: And the IC50 (HOP-62; hop-62)?
A: The IC50 was 0.109 µM and > 1 µM.

Q: What about the IC50 (ALL-PO; all-po) of the same compound?
A: The IC50 was over 1 µM.

Q: What about the IC50 (KINGS-1; kings-1) of the same compound?
A: The IC50 was 0.148 µM and 0.628 µM.

Q: What about the IC50 (MN-60; Homo sapiens, MN-60) of the same compound?
A: Its IC50 is over 1 µM.

Q: And the IC50 (MN-60; mn-60)?
A: Its IC50 is over 1 µM.

Q: And the IC50 (SW982)?
A: Its IC50 is over 1 µM.

Q: And the IC50 (TE-6; te-6)?
A: The IC50 was over 1 µM.

Q: And the IC50 (D-502MG; d-502mg)?
A: Its IC50 is over 1 µM.

Q: What about the IC50 (GOTO; Homo sapiens, GOTO) of the same compound?
A: The IC50 was over 1 µM.

Q: What about the IC50 (GOTO; goto) of the same compound?
A: The IC50 was over 1 µM.

Q: And the IC50 (HCE-4)?
A: The IC50 was over 1 µM.

Q: What about the IC50 (OMC-1; omc-1) of the same compound?
A: The IC50 was over 1 µM.

Q: And the IC50 (NCI-H446; Homo sapiens, NCI-H446)?
A: Its IC50 is over 1 µM.

Q: And the IC50 (NCI-H446; nci-h446)?
A: Its IC50 is over 1 µM.

Q: What about the IC50 (TGW; tgw) of the same compound?
A: The IC50 was over 1 µM.

Q: What about the IC50 (EW-1; ew-1) of the same compound?
A: Its IC50 is 0.21 µM and > 1 µM.

Q: And the IC50 (HT-144; ht-144)?
A: The IC50 was 0.139 µM and 0.334 µM.

Q: What about the IC50 (KARPAS-299; karpas-299) of the same compound?
A: Its IC50 is over 1 µM.

Q: What about the IC50 (COLO-320-HSR; colo-320-hsr) of the same compound?
A: The IC50 was over 1 µM.

Q: And the IC50 (KURAMOCHI)?
A: Its IC50 is over 1 µM.

Q: And the IC50 (LB996-RCC; lb996-rcc)?
A: The IC50 was over 1 µM.

Q: What about the IC50 (EKVX; ekvx) of the same compound?
A: Its IC50 is over 1 µM.

Q: And the IC50 (HL-60; hl-60)?
A: The IC50 was over 1 µM.

Q: And the IC50 (NCI-H1304; Homo sapiens, NCI-H1304)?
A: Its IC50 is over 1 µM.

Q: What about the IC50 (NCI-H1304; nci-h1304) of the same compound?
A: The IC50 was over 1 µM.

Q: What about the IC50 (TE-1; te-1) of the same compound?
A: Its IC50 is 0.451 µM and > 1 µM.

Q: And the IC50 (NOMO-1; Homo sapiens, NOMO-1)?
A: Its IC50 is over 1 µM.

Q: What about the IC50 (NOMO-1; nomo-1) of the same compound?
A: The IC50 was over 1 µM.

Q: And the IC50 (HD-MY-Z; hd-my-z)?
A: Its IC50 is 0.233 µM and > 1 µM.

Q: What about the IC50 (MLMA; mlma) of the same compound?
A: Its IC50 is over 1 µM.

Q: What about the IC50 (AM-38; am-38) of the same compound?
A: Its IC50 is over 1 µM.

Q: What about the IC50 (OS-RC-2; os-rc-2) of the same compound?
A: Its IC50 is 0.48 µM and > 1 µM.

Q: What about the IC50 (KM-H2; Homo sapiens, KM-H2) of the same compound?
A: Its IC50 is over 1 µM.

Q: And the IC50 (KM-H2; km-h2)?
A: The IC50 was over 1 µM.

Q: And the IC50 (MHH-PREB-1; mhh-preb-1)?
A: Its IC50 is over 1 µM.

Q: And the IC50 (LB2241-RCC; lb2241-rcc)?
A: Its IC50 is 0.142 µM and 0.871 µM.
